Counter-ions that a name gives are not always drawn. Some results are limits rather than exact numbers.

What is called AC50 is the concentration giving half of the maximal activity seen.

The subject of this experiment is TFEB. The experiment is described as follows: TFEB nuclear translocation assay, HeLa wt cells. It counts as cell-based. To be noted: Homo sapiens, HeLa, 2 h, 2 hrs compound treatment, Table 1 does not say HeLa wt or TRPML1 KO. In a few lines:
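TFEB translocation into the nucleus of HeLa wt cells is scored by high-content immunofluorescence after 2 hrs of compound treatment at 37° C, reported as AC50.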
Take `CN(C)S(=O)(=O)c1ccc(S(=O)(=O)Nc2cc(Cl)ccc2N2CCOCC2)cc1` [Compound A-290, N4-[5-chloro-2-(morpholin-4-yl)phenyl]-N1,N1-dimethylbenzene-1,4-disulfonamide]: the AC50 is not below 10 µM. In turn, `O=S(=O)(Nc1cc(Cl)ccc1N1CCN(c2ccc(Cl)cc2F)CC1)c1ccc2c(c1)CCC2` [Compound A-291, N-{5-chloro-2-[4-(4-chloro-2-fluorophenyl)piperazin-1-yl]phenyl}-2,3-dihydro-1H-indene-5-sulfonamide] had an AC50 not above 2 µM. The result for `O=S(=O)(Nc1cc(Cl)ccc1N1CCC(c2c(F)cccc2F)CC1)c1ccc2c(c1)CCC2` [Compound A-292, N-{5-chloro-2-[4-(2,6-difluorophenyl)piperidin-1-yl]phenyl}-2,3-dihydro-1H-indene-5-sulfonamide] reads not above 2 µM; that for `CN1CCC2(CCN(c3ccccc3NS(=O)(=O)c3ccc(S(=O)(=O)N(C)C)cc3)CC2)C1` [Compound A-293, N1,N1-dimethyl-N4-(2-{2-methyl-2,8-diazaspiro[4.5]decan-8-yl}phenyl)benzene-1,4-disulfonamide], not below 10 µM; that for `CN(C)S(=O)(=O)c1ccc(S(=O)(=O)N2C(=O)N(C3CCN(c4ccc(Cl)cc4F)CC3)C(=O)C2(C)C)cc1` [Compound A-294, 4-({3-[1-(4-chloro-2-fluorophenyl)piperidin-4-yl]-5,5-dimethyl-2,4-dioxoimidazolidin-1-yl}sulfonyl)-N,N-dimethylbenzene-1-sulfonamide], not below 10 µM. Compound `CN(C)C1CC2(CCN(c3ccccc3NS(=O)(=O)c3ccc(S(=O)(=O)N(C)C)cc3)CC2)c2ccccc21` (centres unmarked) [Compound A-295, N4-{2-[3-(dimethylamino)-2,3-dihydrospiro[indene-1,4′-piperidin]-1′-yl]phenyl}-N1,N1-dimethylbenzene-1,4-disulfonamide] displayed an AC50 of 2.01 to 8 µM. The result for `CN(C)S(=O)(=O)c1ccc(S(=O)(=O)Nc2ccccc2N2CC3(CN(c4ccc(Cl)cc4F)C3)C2)cc1` [Compound A-296, N1-(2-(6-(4-chloro-2-fluorophenyl)-2,6-diazaspiro[3.3]heptan-2-yl)phenyl)-N4,N4-dimethylbenzene-1,4-disulfonamide] reads 2.01 to 8 µM; that for `O=C1COCCN1c1c(Cl)cccc1NS(=O)(=O)c1ccc2c(c1)CCC2` [Compound A-297, N-[3-chloro-2-(3-oxomorpholin-4-yl)phenyl]-2,3-dihydro-1H-indene-5-sulfonamide], not below 10 µM. Consider `O=S(=O)(Nc1cccc(Cl)c1N1CCC(c2c(F)cccc2F)CC1)c1ccc2c(c1)CCC2` [Compound A-298, N-{3-chloro-2-[4-(2,6-difluorophenyl)piperidin-1-yl]phenyl}-2,3-dihydro-1H-indene-5-sulfonamide], for which the AC50 was not above 2 µM.

Compound `CS(=O)(=O)c1ccc(S(=O)(=O)Nc2cc(Cl)ccc2N2CCOCC2)cc1` [Compound A-299, N-[5-chloro-2-(morpholin-4-yl)phenyl]-4-methanesulfonylbenzene-1-sulfonamide] registered an AC50 not below 10 µM.

In turn, `CCN1CCN(c2c(Cl)cccc2NS(=O)(=O)c2ccc3c(c2)CCC3)CC1` [Compound A-300, N-[3-chloro-2-(4-ethylpiperazin-1-yl)phenyl]-2,3-dihydro-1H-indene-5-sulfonamide hydrochloride] registered an AC50 of 2.01 to 8 µM. The result for `CN1C(=O)c2cc(F)ccc2C12CCN(c1ccccc1NS(=O)(=O)c1ccc(S(=O)(=O)N(C)C)cc1)CC2` [Compound A-301, N4-(2-{5-fluoro-2-methyl-3-oxo-2,3-dihydrospiro[isoindole-1,4′-piperidin]-1′-yl}phenyl)-N1,N1-dimethylbenzene-1,4-disulfonamide] reads not above 2 µM; that for `CN1CC(c2ccccc2)C2(CCN(c3ccccc3NS(=O)(=O)c3ccc(S(=O)(=O)N(C)C)cc3)CC2)C1` (centres unmarked) [Compound A-302, N1,N1-dimethyl-N4-(2-{2-methyl-4-phenyl-2,8-diazaspiro[4.5]decan-8-yl}phenyl)benzene-1,4-disulfonamide], not below 10 µM. The compound `CN(C)S(=O)(=O)c1ccc(S(=O)(=O)Nc2ccccc2N2CCC3(CC2)CN(Cc2ccccc2)c2cc(F)ccc23)cc1` [Compound A-304, N4-(2-{1-benzyl-6-fluoro-1,2-dihydrospiro[indole-3,4′-piperidin]-1′-yl}phenyl)-N1,N1-dimethylbenzene-1,4-disulfonamide] showed an AC50 not above 2 µM. The result for `CN1CC2(CCC(c3ccccc3NS(=O)(=O)c3ccc(S(=O)(=O)N(C)C)cc3)CC2)c2ccc(F)cc21` (centres unmarked) [Compound A-305, N1-(2-(6′-fluoro-1′-methylspiro[cyclohexane-1,3′-indolin]-4-yl)phenyl)-N4,N4-dimethylbenzene-1,4-disulfonamide] reads 2.01 to 8 µM; that for `Cc1nn(S(=O)(=O)c2ccc(S(=O)(=O)N(C)C)cc2)cc1N1CCN(c2ccc(Cl)cc2F)CC1=O` [Compound A-306, 4-({4-[4-(4-chloro-2-fluorophenyl)-2-oxopiperazin-1-yl]-3-methyl-1H-pyrazol-1-yl}sulfonyl)-N,N-dimethylbenzene-1-sulfonamide], not below 10 µM.

The compound `CN1CC2(CCN(c3ccccc3N(C)S(=O)(=O)c3ccc(S(C)(=O)=O)cc3)CC2)c2ccc(F)cc21` [Compound A-307, N-(2-{6-fluoro-1-methyl-1,2-dihydrospiro[indole-3,4′-piperidin]-1′-yl}phenyl)-4-methanesulfonyl-N-methylbenzene-1-sulfonamide] gave an AC50 of 2.01 to 8 µM. The result for `CCOC(=O)N1CCN(c2ccccc2NS(=O)(=O)c2ccc(S(=O)(=O)N(C)C)cc2)CC1` [Compound A-308, ethyl 4-{2-[4-(dimethylsulfamoyl)benzenesulfonamido]phenyl}piperazine-1-carboxylate] reads 2.01 to 8 µM; that for `COC(=O)N1CCN(c2ccccc2NS(=O)(=O)c2ccc(S(=O)(=O)N(C)C)cc2)CC1` [Compound A-309, methyl 4-{2-[4-(dimethylsulfamoyl)benzenesulfonamido]phenyl}piperazine-1-carboxylate], 2.01 to 8 µM. The result for `CN1Cc2cc(F)ccc2C12CCN(c1ccccc1NS(=O)(=O)c1ccc(S(=O)(=O)N(C)C)cc1)CC2` [Compound A-310, N4-(2-{5-fluoro-2-methyl-2,3-dihydrospiro[isoindole-1,4′-piperidin]-1′-yl}phenyl)-N1,N1-dimethylbenzene-1,4-disulfonamide; formic acid] reads not above 2 µM. The result for `CN(C)S(=O)(=O)c1ccc(S(=O)(=O)Nc2cccc(Cl)c2N2CCOCC2)cc1` [Compound A-311, N4-[3-chloro-2-(morpholin-4-yl)phenyl]-N1,N1-dimethylbenzene-1,4-disulfonamide] reads 2.01 to 8 µM; that for `CN(C)S(=O)(=O)c1ccc(S(=O)(=O)Cc2cc(Cl)ccc2N2CCOCC2)cc1` [Compound A-312, 4-{[5-chloro-2-(morpholin-4-yl)phenyl]methanesulfonyl}-N,N-dimethylbenzene-1-sulfonamide], not below 10 µM; that for `O=S(=O)(Nc1cc(Cl)ccc1N1CCC(c2ccc(Cl)cc2F)CC1)c1ccc2c(c1)CCC2` [Compound A-313, N-{5-chloro-2-[4-(4-chloro-2-fluorophenyl)piperidin-1-yl]phenyl}-2,3-dihydro-1H-indene-5-sulfonamide], not above 2 µM. In turn, `CCN1CCN(c2ccc(Cl)cc2NS(=O)(=O)c2ccc3c(c2)CCC3)C(=O)C1` [Compound A-314, N-[5-chloro-2-(4-ethyl-2-oxopiperazin-1-yl)phenyl]-2,3-dihydro-1H-indene-5-sulfonamide] had an AC50 not below 10 µM. `CCN1CCN(c2c(Cl)cccc2NS(=O)(=O)c2ccc3c(c2)CCC3)C(=O)C1` [Compound A-315, N-[3-chloro-2-(4-ethyl-2-oxopiperazin-1-yl)phenyl]-2,3-dihydro-1H-indene-5-sulfonamide] registered an AC50 not below 10 µM.

`O=S(=O)(Nc1cc(Cl)ccc1N1CCCC2(CCCCO2)C1)c1ccc2c(c1)CCC2` (centres unmarked) [Compound A-316, N-(5-chloro-2-{1-oxa-8-azaspiro[5.5]undecan-8-yl}phenyl)-2,3-dihydro-1H-indene-5-sulfonamide] had an AC50 of 2.01 to 8 µM. The compound `O=S1(=O)CCC2(CC1)CN(c1ccc(Cl)cc1NS(=O)(=O)c1ccc3c(c1)CCC3)CCO2` [Compound A-317, N-(5-chloro-2-{9,9-dioxo-1-oxa-9λ^6-thia-4-azaspiro[5.5]undecan-4-yl}phenyl)-2,3-dihydro-1H-indene-5-sulfonamide] yielded an AC50 of 2.01 to 8 µM. `CN1CC(c2ccccc2)C2(CCN(c3ccccc3NS(=O)(=O)c3ccc(S(=O)(=O)N(C)C)cc3)CC2)C1=O` (centres unmarked) [Compound A-318, N1,N1-dimethyl-N4-(2-{2-methyl-1-oxo-4-phenyl-2,8-diazaspiro[4.5]decan-8-yl}phenyl)benzene-1,4-disulfonamide]: the AC50 fell in the range of 2.01 to 8 µM. For the compound `CS(=O)(=O)c1ccc(S(=O)(=O)Nc2ccccc2N2CCC3(CC2)COc2cc(F)ccc23)cc1` [Compound A-319, N-(2-{6-fluoro-2H-spiro[1-benzofuran-3,4′-piperidin]-1′-yl}phenyl)-4-methanesulfonylbenzene-1-sulfonamide], the AC50 was not above 2 µM. Compound `CN1CC2(CCN(c3ccccc3NS(=O)(=O)c3ccc(S(C)(=O)=O)cc3)CC2)c2ncccc21` [Compound A-320, 4-methanesulfonyl-N-(2-{1′-methyl-1′,2′-dihydrospiro[piperidine-4,3′-pyrrolo[3,2-b]pyridin]-1-yl}phenyl)benzene-1-sulfonamide; formic acid] had an AC50 not below 10 µM. With `CN(C)S(=N)(=O)c1ccc(S(=O)(=O)Nc2ccccc2N2CCN(C(=O)C(C)(C)C)CC2)cc1` (centres unmarked) [Compound A-321, 4-({2-[4-(2,2-dimethylpropanoyl)piperazin-1-yl]phenyl}sulfamoyl)-N,N-dimethylbenzene-1-sulfonoimidamide], the AC50 was not below 10 µM.

`CC(C)C(=O)N1CCN(c2ccccc2NS(=O)(=O)c2ccc(S(=O)(=O)N(C)C)cc2)CC1` [Compound A-322, N1,N1-dimethyl-N4-{2-[4-(2-methylpropanoyl)piperazin-1-yl]phenyl}benzene-1,4-disulfonamide] showed an AC50 of 8.01 to 9.99 µM.

The values above are taken from US20230104936A1, “TRPML MODULATORS” (Casma Therapeutics, Inc., priority 2019, published 2023).
